Data published in patent US7572463B2, “Oral dosage forms” (Gruenenthal GmbH, priority 1999, dated 2009).
Where a name gives a salt, the structure may show the parent alone.

Experiments:
[1] = In-vitro release profile, European Pharmacopoeia basket apparatus, synthetic gastric then intestinal juices, HPLC; format: physicochemical
Experimental: The release profiles of the oral dosage forms according to the invention were determined as follows:
The dosage forms according to the invention were tested in the European Pharmacopoeia basket apparatus at a temperature of the released medium of 37±0.5° C., and at a rate of 50 rpm for 2 hours in 600 ml synthetic gastric juices without enzymes at pH 1.2. Following this, the dosage form was tested for a further 8 hours in 900 ml synthetic intestinal juices without enzymes at pH 7.2. The quantity of active substance released at a given time was determined in each case by means of HPLC. The values shown are average values based in each case on 3 samples. The invention will be explained below with reference to examples.
(§1) The release profile was determined according to the method indicated above using the basket apparatus and this is reproduced in the following Table 1 and in FIG. 1 (as a percentage of the total dose, calculated as tramadol hydrochloride). By way of deviation from the conditions described above, the coated pellets were tested for 18 hours in synthetic intestinal juices without enzymes at pH 7.2.
as §1, with “2” for “1”, “10” for “18”

[2] = Water solubility of the active-substance salts (saturated solution in deionised water, HPLC); format: physicochemical; conditions: 25° C., 20 hours stirring
Experimental: The water solubility of the active-substance salts was determined as follows:
The quantity of the relevant active-substance salts required for this may optionally be determined by means of preliminary experiments.
After the un-dissolved active-substance salt had been allowed to settle, the clear supernatant was removed by pipette and centrifuged at rate of at least 3000 rpm for five minutes.

[3] = salt in the ethyl cellulose coated pellets of Example 2
[4] = salt in the shellac coated pellets of Example 3, tests in synthetic intestinal juices

## COc1cccc(C2(O)CCCCC2CN(C)C)c1.O=C(O)Cc1ccccc1Nc1c(Cl)cccc1Cl (stereo not drawn) [[1e-(m-methoxyphenyl)-2e-dimethylaminomethyl-cyclohexane-1(a)-ol]-[2-(2′,6′-dichloranilino)-phenylacetate]]
[1]; [3]
  period over which tramadol is released in a retarded manner from the salt: 10 h
[1]; [4]
  period over which tramadol is released in a retarded manner from the salt: 8 h

## COc1cccc(C2(O)CCCCC2CN(C)C)c1 (stereo not drawn) [tramadol hydrochloride]
[1]; [3]
  release of the active substance tramadol from the salt (in words): released very rapidly
[1]; [4]
  release of the active substance tramadol from the salt (in words): released very rapidly
[2]; thermodynamic from solid
  solubility at 20 h: > 300 mg/mL

## COc1cccc(C2(O)CCCCC2CN(C)C)c1.O=C1NS(=O)(=O)c2ccccc21 (stereo not drawn) [tramadolsaccharinate]
[2]
  water solubility: approx. 20 mg/ml
